Active and inactive are the calls of the source. Cut-off read from the data, not from the text of the source, for most assays here: actives have a measured EC50 and inactives only a lower limit.
Assays:
[1] = Luminescence Cell-Based Dose Response to Identify Activators of 5'UTR Stem-Loop Driven Prion Protein mRNA Translation in H4-C Neuroglioblastoma Cells. [Related pubchem assays: 1829 (Project Summary), 1814 (Primary HTS)]; assay type: functional
[2] = Luminescence Cell-Based Dose Confirmation HTS to Identify Activators of 5'UTR Stem-Loop Driven Alpha-Synuclein mRNA Translation in H4 Neuroglioblastoma Cells. [Related pubchem assays: 1829 (Project Summary), 1814 (Primary HTS)]; assay type: functional
[3] = Luminescence Cell-Based Dose Response HTS to Identify Activators of Luciferase Translation or Activity in H4 […] Cells. [Related pubchem assays: 1829 (Project Summary), 1814 (Primary HTS)]; assay type: functional
H4 = assay: Luminescence Cell-Based Dose Response HTS to Identify Activators of 5'UTR Stem-Loop Driven Prion Protein mRNA Translation in H4 Neuroglioblastoma Cells. [Related pubchem assays: 1829 (Project Summary), 1814 (Primary HTS)]; assay type: functional; conditions: Homo sapiens
[4] = Luminescence Cell-Based Dose Response to Identify Activators of Luciferase Translation or Activity in H4-C Neuroglioblastoma Cells. [Related pubchem assays: 1829 (Project Summary), 1814 (Primary HTS)]; assay type: functional
[5] = Luminescence Cell-Based Dose Confirmation to Identify Activators of 5'UTR Stem-Loop Driven Alpha-Synuclein mRNA Translation in H4 Neuroglioblastoma Cells. [Related pubchem assays: 1829 (Project Summary), 1814 (Primary HTS)]; assay type: functional
HeLa = assay: HeLa cell cytotoxicity, dose response, cytotoxicity control for MITF activator project, CellTiter-Glo luminescence, cherry-pick samples (AID 540259); assay type: functional, cell-based; conditions: Homo sapiens
[6] = test system: Streptococcus sp. 'group A'; assay: growth inhibition of control SK(-) GAS strain, dose response, counter-screen for streptokinase expression inhibitor project, luminescence, kanamycin, BacTiterGlo, confirmation (AID 1900); assay type: functional, organism-based
Streptokinase A = molecular target: T1, Streptokinase A (Streptococcus pyogenes serotype M1, UniProt P10520); assay: S. pyogenes streptokinase expression inhibitors, potency, dose response, plasminogen activation absorbance, OD405 (AID 1914); assay type: functional, Streptococcus pyogenes M1 GAS;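 note: secreted streptokinase activity via plasminogen activation per viability signal from cell pellet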
T1 sequence (P10520 whole entry): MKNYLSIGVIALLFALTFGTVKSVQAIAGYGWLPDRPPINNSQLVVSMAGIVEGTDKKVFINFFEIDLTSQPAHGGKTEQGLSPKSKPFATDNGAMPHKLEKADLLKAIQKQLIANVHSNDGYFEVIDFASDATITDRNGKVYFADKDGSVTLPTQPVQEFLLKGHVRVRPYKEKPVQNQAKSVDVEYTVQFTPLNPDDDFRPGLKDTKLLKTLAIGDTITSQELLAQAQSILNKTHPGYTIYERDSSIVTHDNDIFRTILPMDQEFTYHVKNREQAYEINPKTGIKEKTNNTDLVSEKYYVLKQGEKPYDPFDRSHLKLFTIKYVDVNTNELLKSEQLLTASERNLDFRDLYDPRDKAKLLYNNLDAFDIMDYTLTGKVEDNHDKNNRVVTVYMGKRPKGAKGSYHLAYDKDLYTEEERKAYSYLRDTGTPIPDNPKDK

[7] = molecular target: Protein-tyrosine kinase 2-beta (Homo sapiens, UniProt Q14289);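 note: potency of inhibitors of PYK2 kinase phosphorylation of poly-GT substrate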
Streptococcus = assay: Group A Streptococcus viability loss, dose response, counter-screen for streptokinase expression inhibitor project, luminescence, BacTiterGlo (AID 1915); assay type: functional, organism-based;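 note: potency for reduction of bacterial viability or growth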
[8] = molecular target: T2, Microphthalmia-associated transcription factor (Homo sapiens, UniProt O75030); assay: TRPM1 promoter luciferase signal decrease, dose response, MITF inhibitor project, cell-based, SK-MEL-5, cherry-picked, set 3 (AID 493073); assay type: functional
T2 sequence (O75030 whole entry): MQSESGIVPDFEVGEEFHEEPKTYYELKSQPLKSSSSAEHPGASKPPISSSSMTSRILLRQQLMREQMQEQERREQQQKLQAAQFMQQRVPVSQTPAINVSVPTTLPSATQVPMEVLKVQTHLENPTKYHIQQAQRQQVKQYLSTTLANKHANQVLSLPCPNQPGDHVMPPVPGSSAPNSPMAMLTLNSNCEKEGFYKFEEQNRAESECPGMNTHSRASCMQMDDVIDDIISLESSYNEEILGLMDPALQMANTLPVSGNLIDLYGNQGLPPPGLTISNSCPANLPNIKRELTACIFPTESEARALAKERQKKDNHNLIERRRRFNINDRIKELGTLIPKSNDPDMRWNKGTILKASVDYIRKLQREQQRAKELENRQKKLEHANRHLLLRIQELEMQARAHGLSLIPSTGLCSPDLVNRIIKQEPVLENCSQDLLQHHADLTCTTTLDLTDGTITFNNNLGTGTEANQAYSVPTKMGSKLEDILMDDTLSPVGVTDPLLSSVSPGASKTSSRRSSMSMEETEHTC

[9] = NIH-3T3 fibroblast cytotoxicity, dose response, cytotoxicity control, cell-based, fluorescence, Alamar Blue, secondary assay (AID 2327); assay type: functional;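 note: NIH-3T3 mouse fibroblasts cultured with fluconazole at 8 µg/mL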
[10] = C. albicans growth with fluconazole, confirmation, fluorescence, retest (AID 2467); assay type: functional, cell-based
[11] = inhibitors of intracellular T. cruzi replication, confirmation, NIH3T3 host cells, beta-gal luminescence (AID 2044); assay type: functional, cell-based;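 note: intracellular parasites grown in NIH/3T3 mouse fibroblasts as host cells; luminescent beta-galactosidase reporter signal from transgenic T. cruzi replicating inside host cells; inhibitors lower the luminescence signal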
[12] = growth suppression of PTEN-null colon cells, dose response, cell-based, HCT116 PTEN knockout (AID 1047); assay type: functional;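 note: HCT116 colon tumor cells with PTEN knocked out; cells exposed to compound for 60 hours before readout; potency for loss of cell viability measured by luminescence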
[13] = molecular target: T3, Serine/threonine-protein phosphatase (Candida dubliniensis (strain CD36 / CBS 7987 / NCPF 3949 / NRRLY-17841) (Yeast), UniProt B9W6M3); assay: calcineurin pathway inhibitors in yeast reporter, dose response, S. cerevisiae, CDRE-lacZ, luminescence, secondary (AID 2388); assay type: functional, cell-based;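 note: yeast reporter cells carrying a calcineurin-responsive lacZ construct stimulated with calcium chloride; luminescent beta-galactosidase reporter signal in whole cells rather than isolated phosphatase activity; potency for inhibition where a drop in reporter signal means calcineurin blockade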
T3 sequence (B9W6M3 whole entry): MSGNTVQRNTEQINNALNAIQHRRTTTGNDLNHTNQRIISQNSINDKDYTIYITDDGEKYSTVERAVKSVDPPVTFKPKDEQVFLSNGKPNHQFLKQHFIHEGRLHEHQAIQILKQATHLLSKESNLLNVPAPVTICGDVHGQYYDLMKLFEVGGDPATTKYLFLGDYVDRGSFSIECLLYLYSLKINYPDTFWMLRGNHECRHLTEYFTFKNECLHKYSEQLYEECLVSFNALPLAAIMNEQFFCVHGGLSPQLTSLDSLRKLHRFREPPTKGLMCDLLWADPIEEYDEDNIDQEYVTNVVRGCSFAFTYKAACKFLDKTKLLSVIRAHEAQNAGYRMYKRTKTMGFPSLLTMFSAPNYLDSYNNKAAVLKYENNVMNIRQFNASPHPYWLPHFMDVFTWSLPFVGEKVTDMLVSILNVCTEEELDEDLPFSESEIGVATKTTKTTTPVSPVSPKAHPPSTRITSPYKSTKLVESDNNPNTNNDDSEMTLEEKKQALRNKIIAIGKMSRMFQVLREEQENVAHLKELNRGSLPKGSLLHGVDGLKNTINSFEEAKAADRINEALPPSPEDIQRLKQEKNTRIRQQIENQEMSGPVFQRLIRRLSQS

[14] = cytotoxicity toward NIH3T3 fibroblasts, dose response, counter-screen, cell-based, ATP luminescence, mouse fibroblasts (AID 2010); assay type: functional;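 note: cells exposed to compound for about 90 hours before reading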
[15] = growth suppression of beta-catenin-knockout colon cells, dose response, cell-based, HCT116, human colon tumor (AID 1045); assay type: functional;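 note: HCT116 colon tumor cells with beta catenin knocked out; cells exposed to compound for 60 hours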
[16] = molecular target: ATP-dependent molecular chaperone HSP82 (Candida albicans (strain WO-1) (Yeast), UniProt C4YTQ8); assay: loss of DOC-induced GRE-beta-galactosidase reporter signal, dose response, Hsp90 inhibitor project, S. cerevisiae, luminescence (AID 2400); assay type: functional, cell-based;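 note: beta-galactosidase luminescence from glucocorticoid response element reporter as proxy for Hsp90 function; inhibitor potency where signal loss means Hsp90 inhibition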
[17] = molecular target: T4, Voltage-gated N-type calcium channel alpha-1B subunit/Amyloid beta A4 precursor protein-binding family A member 1 (Homo sapiens, UniProt Q00975+Q02410); assay type: protein assay
T4 sequence (Q00975 whole entry): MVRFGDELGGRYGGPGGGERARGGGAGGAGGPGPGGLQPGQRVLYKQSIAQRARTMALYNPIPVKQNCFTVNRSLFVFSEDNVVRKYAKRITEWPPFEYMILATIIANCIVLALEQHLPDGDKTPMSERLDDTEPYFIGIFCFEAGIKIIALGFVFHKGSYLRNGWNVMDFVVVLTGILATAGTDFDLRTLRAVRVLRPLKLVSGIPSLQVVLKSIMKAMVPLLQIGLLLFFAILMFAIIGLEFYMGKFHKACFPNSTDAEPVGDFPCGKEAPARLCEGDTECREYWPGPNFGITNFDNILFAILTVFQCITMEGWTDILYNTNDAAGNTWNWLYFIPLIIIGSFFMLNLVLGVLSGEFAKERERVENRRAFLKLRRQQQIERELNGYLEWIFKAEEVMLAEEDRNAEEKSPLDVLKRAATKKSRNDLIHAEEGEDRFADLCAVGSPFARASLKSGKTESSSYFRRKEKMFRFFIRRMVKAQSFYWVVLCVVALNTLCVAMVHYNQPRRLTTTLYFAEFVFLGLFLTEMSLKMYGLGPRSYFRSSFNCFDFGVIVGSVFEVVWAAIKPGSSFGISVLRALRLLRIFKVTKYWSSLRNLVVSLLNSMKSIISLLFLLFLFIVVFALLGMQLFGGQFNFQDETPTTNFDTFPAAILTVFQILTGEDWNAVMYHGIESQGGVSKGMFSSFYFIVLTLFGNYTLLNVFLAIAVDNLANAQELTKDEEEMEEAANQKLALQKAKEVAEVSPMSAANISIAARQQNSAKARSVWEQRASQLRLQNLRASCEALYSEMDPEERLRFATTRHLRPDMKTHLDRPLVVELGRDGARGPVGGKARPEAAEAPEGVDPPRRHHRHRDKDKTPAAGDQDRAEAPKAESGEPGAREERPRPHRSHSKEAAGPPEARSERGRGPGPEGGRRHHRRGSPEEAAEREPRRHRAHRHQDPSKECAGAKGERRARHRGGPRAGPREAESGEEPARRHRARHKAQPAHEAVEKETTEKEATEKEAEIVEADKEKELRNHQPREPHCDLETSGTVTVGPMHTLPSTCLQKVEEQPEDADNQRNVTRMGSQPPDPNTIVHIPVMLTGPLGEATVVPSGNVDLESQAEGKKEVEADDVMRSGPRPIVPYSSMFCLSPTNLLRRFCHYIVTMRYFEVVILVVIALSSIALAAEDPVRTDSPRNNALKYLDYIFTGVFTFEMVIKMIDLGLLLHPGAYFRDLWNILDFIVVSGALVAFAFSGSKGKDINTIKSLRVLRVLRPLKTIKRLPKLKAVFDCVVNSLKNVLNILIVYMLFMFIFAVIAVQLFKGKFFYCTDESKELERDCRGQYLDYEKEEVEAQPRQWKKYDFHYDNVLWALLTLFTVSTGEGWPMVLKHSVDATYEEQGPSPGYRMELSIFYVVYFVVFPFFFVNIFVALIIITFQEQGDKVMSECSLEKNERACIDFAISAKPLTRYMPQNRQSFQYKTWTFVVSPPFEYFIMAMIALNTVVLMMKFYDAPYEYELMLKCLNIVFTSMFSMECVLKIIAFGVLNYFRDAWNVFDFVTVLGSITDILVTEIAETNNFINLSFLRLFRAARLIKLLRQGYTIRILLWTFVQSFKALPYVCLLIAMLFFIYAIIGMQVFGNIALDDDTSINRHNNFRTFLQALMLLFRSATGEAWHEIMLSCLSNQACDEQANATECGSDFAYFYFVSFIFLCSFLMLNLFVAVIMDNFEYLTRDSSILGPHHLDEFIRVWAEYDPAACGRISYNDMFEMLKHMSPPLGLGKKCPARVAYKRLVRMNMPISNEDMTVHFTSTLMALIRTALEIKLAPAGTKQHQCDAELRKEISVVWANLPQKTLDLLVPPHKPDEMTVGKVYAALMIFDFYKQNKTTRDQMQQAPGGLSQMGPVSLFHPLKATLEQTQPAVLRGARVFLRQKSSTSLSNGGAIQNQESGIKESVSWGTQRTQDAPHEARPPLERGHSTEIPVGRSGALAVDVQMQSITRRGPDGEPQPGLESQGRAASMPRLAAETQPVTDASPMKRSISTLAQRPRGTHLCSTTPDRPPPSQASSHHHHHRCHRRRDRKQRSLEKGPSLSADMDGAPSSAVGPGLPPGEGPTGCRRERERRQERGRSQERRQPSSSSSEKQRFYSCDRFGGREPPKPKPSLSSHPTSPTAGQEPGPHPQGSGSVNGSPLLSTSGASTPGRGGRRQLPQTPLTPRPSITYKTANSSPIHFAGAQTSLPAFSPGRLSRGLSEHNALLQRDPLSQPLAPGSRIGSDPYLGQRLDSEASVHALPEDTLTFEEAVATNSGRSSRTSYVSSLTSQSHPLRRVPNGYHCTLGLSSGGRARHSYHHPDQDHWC
T4 sequence (Q02410 whole entry): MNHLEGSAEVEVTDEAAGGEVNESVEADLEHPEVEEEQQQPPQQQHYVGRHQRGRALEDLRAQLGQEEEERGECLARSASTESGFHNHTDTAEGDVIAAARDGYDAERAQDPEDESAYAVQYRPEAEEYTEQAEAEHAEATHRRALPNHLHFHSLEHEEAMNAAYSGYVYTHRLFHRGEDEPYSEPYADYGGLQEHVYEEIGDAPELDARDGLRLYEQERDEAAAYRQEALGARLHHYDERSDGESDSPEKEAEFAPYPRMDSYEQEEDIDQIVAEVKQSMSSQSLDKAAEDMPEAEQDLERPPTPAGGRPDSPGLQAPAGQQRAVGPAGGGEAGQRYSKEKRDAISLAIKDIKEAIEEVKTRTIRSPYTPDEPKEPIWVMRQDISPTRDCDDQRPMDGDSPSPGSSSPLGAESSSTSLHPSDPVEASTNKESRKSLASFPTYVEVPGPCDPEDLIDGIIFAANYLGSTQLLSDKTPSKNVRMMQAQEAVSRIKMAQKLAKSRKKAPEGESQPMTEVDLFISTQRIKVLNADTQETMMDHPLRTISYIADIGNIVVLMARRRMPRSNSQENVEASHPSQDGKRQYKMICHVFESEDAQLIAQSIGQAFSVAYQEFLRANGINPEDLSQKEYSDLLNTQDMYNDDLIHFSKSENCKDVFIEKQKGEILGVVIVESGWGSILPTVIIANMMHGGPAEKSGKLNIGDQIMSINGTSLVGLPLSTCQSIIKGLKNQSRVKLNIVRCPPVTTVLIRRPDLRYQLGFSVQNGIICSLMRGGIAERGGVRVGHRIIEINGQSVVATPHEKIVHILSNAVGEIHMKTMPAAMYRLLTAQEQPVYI

Large T antigen = Large T antigen (Simian virus 40, UniProt P03070); assay type: functional, Betapolyomavirus macacae;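 note: Confirmatory-stage PubChem screen for compounds that inhibit SV40 T antigen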
Chain of Large T antigen (P03070 whole entry): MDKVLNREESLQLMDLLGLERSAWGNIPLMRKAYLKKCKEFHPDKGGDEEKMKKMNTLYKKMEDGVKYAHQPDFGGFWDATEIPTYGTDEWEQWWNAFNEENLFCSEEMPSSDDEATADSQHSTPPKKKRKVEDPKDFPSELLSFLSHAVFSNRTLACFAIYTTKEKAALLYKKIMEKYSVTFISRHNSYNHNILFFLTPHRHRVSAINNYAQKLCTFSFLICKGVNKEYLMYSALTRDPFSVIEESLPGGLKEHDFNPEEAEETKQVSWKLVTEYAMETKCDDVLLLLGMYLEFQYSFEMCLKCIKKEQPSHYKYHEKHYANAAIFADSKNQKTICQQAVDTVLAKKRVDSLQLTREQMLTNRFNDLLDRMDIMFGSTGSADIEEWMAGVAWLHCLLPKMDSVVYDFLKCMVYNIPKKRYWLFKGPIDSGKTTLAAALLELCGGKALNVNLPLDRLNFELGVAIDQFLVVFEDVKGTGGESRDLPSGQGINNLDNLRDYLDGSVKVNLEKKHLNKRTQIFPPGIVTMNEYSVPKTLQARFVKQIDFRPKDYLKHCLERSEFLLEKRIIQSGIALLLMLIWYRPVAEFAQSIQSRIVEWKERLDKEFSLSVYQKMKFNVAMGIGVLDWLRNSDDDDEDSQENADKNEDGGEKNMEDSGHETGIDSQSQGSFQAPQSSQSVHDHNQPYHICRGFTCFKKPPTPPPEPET

Estrogen receptor = molecular target: T5, Estrogen receptor (Homo sapiens, UniProt P03372);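 note: potency for inhibiting coactivator peptide recruitment to the receptor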
T5 sequence (P03372 whole entry): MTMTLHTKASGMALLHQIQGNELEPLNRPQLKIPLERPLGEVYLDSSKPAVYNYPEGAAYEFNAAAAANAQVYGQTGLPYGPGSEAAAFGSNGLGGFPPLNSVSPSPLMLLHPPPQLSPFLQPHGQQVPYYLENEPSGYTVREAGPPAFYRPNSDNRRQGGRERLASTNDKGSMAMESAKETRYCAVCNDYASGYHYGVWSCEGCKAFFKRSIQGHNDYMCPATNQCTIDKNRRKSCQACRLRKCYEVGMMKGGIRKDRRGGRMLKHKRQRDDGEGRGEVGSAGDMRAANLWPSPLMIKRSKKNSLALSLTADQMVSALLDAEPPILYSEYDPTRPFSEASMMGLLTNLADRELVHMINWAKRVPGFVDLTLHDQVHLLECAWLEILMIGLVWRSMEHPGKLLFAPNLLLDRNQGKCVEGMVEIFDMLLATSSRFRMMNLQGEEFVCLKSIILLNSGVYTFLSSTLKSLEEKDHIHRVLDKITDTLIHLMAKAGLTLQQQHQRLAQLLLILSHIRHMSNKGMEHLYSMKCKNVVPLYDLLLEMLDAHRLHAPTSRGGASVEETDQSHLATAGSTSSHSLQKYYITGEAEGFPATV

[18] = molecular target: T4, Voltage-gated N-type calcium channel alpha-1B subunit/Amyloid beta A4 precursor protein-binding family A member 1; assay type: protein assay; remark: listed apart in the source
[19] = molecular target: Induced myeloid leukemia cell differentiation protein Mcl-1 (Homo sapiens, UniProt Q07820); assay: MCL1-BIM BH3 interaction inhibitors, dose response, biochemical, fluorescence polarization, BIM-BH3 peptide, 1536-well (AID 2217)
Chain of Induced myeloid leukemia cell differentiation protein Mcl-1 (Q07820 whole entry): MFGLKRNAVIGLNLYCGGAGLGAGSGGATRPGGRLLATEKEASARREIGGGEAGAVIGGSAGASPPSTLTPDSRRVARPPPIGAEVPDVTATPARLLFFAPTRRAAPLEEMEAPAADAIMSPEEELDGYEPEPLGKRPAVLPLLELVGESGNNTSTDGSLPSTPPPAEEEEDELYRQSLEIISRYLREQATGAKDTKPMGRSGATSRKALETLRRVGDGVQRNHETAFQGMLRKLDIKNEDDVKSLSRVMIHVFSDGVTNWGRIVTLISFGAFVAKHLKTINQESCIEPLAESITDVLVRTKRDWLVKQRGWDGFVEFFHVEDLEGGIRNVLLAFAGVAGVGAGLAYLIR

Estrogen receptor beta = Estrogen receptor beta (Homo sapiens, UniProt Q92731);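 note: recombinant ER-beta bound to coactivator SRC1 peptide in presence of estradiol agonist; inhibitors block coactivator peptide binding and lower the FRET signal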
Chain of Estrogen receptor beta (Q92731 whole entry): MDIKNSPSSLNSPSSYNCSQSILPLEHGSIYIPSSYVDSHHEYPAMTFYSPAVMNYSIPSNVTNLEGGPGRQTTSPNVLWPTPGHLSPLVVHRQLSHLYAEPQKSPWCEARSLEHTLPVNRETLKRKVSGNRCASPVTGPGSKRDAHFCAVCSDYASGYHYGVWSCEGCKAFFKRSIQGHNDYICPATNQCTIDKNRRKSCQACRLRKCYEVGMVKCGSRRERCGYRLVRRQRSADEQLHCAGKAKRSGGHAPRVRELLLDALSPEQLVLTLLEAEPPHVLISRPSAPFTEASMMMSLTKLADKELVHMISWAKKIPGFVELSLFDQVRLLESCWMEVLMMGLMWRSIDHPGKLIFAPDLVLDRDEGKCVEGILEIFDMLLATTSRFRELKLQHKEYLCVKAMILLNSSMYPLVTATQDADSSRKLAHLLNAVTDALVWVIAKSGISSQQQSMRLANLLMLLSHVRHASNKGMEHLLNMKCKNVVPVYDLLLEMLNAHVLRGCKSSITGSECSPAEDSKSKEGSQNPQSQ

Bcl-2-like protein 1 = Bcl-2-like protein 1 (Homo sapiens, UniProt Q07817); assay: BCL-XL inhibitors, dose response, selectivity assay for MCL1 inhibitor project, biochemical, fluorescence polarization, 1536-well (AID 2218)
Chain of Bcl-2-like protein 1 (Q07817 whole entry): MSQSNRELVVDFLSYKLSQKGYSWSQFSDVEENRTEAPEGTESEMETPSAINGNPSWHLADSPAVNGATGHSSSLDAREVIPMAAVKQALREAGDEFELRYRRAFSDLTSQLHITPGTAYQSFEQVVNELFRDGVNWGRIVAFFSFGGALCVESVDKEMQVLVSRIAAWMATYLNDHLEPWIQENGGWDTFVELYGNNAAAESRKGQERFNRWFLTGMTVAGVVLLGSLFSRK

SMILES: CS(=O)(=O)N1N=C(c2ccc(Br)cc2)CC1c1ccc2c(c1)OCO2 (configuration not stated)
- EC50 [1]: 0.328 µM (active)
- EC50 [2]: 0.174 µM (active)
- EC50 [3]: < 0.1 µM (active)
- EC50 (H4): < 0.1 µM (active)
- EC50 [4]: 0.344 µM (active)
- EC50 [5]: 0.467 µM (active)
- AC50 (HeLa): 61.3 µM (active)

SMILES: CCOc1cc(/C=C2/NC(=S)NC2=O)ccc1OCc1ccc([N+](=O)[O-])cc1
- EC50 [6]: 3.85 µM (active)
- EC50 (Streptokinase A): 8.31 µM (active)
- IC50 [7]: 3.76 µM (active)
- EC50 (Streptococcus): > 150 µM (not active)
- AC50 [8]: 8.19 µM (active)

SMILES: O=C(CNc1ccc2ccccc2c1)N/N=C/c1ccc([N+](=O)[O-])o1
- EC50 [9]: > 160 µM (inactive)
- EC50 [6]: 11.1 µM (active)
- EC50 (Streptokinase A): > 150 µM (not active)
- EC50 [10]: 3.85 µM (active)
- EC50 [11]: < 0.1 µM (active)
- EC50 [12]: 14.2 µM (active)
- EC50 [13]: > 180 µM (inactive)
- EC50 [14]: > 60 µM (not active)
- EC50 [15]: 15.9 µM (active)
- EC50 (Streptococcus): > 150 µM (not active)
- AC50 [8]: 4.95 µM (active)
- EC50 [16]: > 160 µM (inactive)
- EC50 (cells): 0.019 µM (active)

SMILES: CCOc1ccc(N2CSC3=C(C#N)C(c4ccco4)CC(=O)N3C2)cc1 (configuration not stated)
- IC50 [17]: 21.6 µM (active)
- IC50 (Large T antigen): 13.8 µM (active)
- IC50 (Estrogen receptor): > 50 µM (not active)
- IC50 [18]: 9.68 µM (active)
- IC50 [19]: > 109 µM (not active)
- IC50 (Estrogen receptor beta): > 50 µM (not active)
- IC50 (Bcl-2-like protein 1): > 109 µM (not active)

Reference: ChEMBL document CHEMBL1201862, “PubChem BioAssay data set” (2004)
